Results from US6284910A, “Farnesyl pyrophosphate analogs” (University of Kentucky Research Foundation, priority 1999, dated 2001).
Entries after “also recorded” stand apart in the source; their conditions may differ.

Key:
[1] = biological target: T1, FTase (Rattus norvegicus, UniProt Q02293+Q04631); experiment: Inhibition of FTase-catalyzed transfer of [^3 H]AGPP to p21^H-ras; format: biochemical; parameters: H-Ras is only the protein substrate; conditions: non-radiolabeled compound, time and concentration dependent transfer
Method: (§1) Assay for Farnesyltransferase Activity--Farnesyltransferase activity was assayed by measuring the amount of [^3 H]farnesyl or [^3 H]anilinogeranyl transferred from [^3 H]FPP or [^3 H]AGPP to recombinant p21^H-ras, as described previously (31). Unless otherwise stated, each reaction mixture contained the following components in a final volume of 25 μl: 50 mM Tris (pH 7.4), 20 mM KCl, 0.2% octyl β-glucopyranoside, 1 mM dithiothreitol, 10-20 ng recombinant FTase, 5 μM p21^Ha-ras, 3 mM MgCl2, 50 μM ZnCl2, and 0.6 μM [^3 H]FPP (33,000 dpm/pmol; American Radiochemical Co.) or 0.1-5 μM [^3 H]AGPP (37,400 dpm/pmol). Following incubation for the indicated times at 37° C., the amount of [^3 H]prenyl transferred was measured by ethanol-HCl precipitation and filtration on glass fiber filters with modification as previously described (19). A blank value was determined in parallel incubation mixtures containing no enzyme. This blank value was subtracted from each reaction before calculating pmol [^3 H]prenyl transferred.
(§2) The observed inhibition kinetics could be a manifestation of the ability of AGPP to act as an alternative substrate for FTase. To evaluate the potential of AGPP to serve as a substrate of FTase, [^3 H]-AGPP was prepared by a similar route as described above, incorporating tritium with a specific activity of 17 Ci/mmol (synthesis to be reported elsewhere). […] The incorporated radioactivity was detected as a band of the expected molecular weight of farnesylated p21^H-ras on SDS-polyacrylamide gels (FIG. 4A, inset). […] The concentration of [^3 H]AGPP that gave half-maximal reaction velocity was approximately 0.5 μM (FIG. 4B).

[2] = biological target: T2, recombinant rat brain FTase (Rattus norvegicus, UniProt Q02293+Q04631); experiment: Inhibition of FTase-catalyzed transfer of [^3 H]farnesyl from [^3 H]FPP to H-Ras; format: biochemical; conditions: concentrations as high as 250 μM
T2 construct: 6xHis (N); made in house; host or cells: Sf9 insect cells (baculovirus)
Method: FIG. 2. Differential Inhibition of Farnesyltransferase and CAAX Geranylgeranyltransferase by AGPP. The assay mixtures contained (in a final volume of 25 μl) various components as described in "Experimental Procedures". After incubation for 15 min at 37° C., the amount of [^3 H]prenyl group transferred to the appropriate protein substrate [H-Ras (CVLS) for FTase and H-Ras (CVLL) for CAAX GGTase] was measured by precipitation with ethanol-HCl. The assays contained 10 ng recombinant rat FTase, 5 μM H-Ras, and 0.6 μM [^3 H]FPP (33,000 dpm/pmol) or 100 ng recombinant rat CAAX GGTase, 5 μM H-Ras CVLL, and 1 μM [^3 H]GGPP (33,000 dpm/pmol) and the indicated concentration of unlabeled AGPP. The 100% of control values were 1.1 and 5.5 pmol of [^3 H]farnesyl or [^3 H]geranylgeranyl transferred per tube. Each value is the average of duplicate incubations and is representative of two separate experiments.
FIG. 3. Inhibition of Farnesyltransferase by AGPP and I-AGPP. The enzymatic activity was measured in the presence of the various concentrations of either AGPP or I-AGPP as described in […]. The 100% control values were 1.9 and 2 pmol. Each value is the average of duplicate incubations and is representative of three separate experiments.
as §1
Inhibition of Farnesyltransferase by AGPP--AGPP was tested for its ability to inhibit recombinant rat brain FTase activity in vitro. AGPP inhibited FTase in a concentration dependent manner with an IC50 value of 0.6 μM (FIG. 2).
Kinetic analyses were carried out to investigate the mechanism of FTase inhibition by AGPP. […] The same Km value was observed when the Lineweaver-Burke plot was analyzed under different Ras and AGPP concentrations in the presence of a constant concentration of FPP. […] AGPP inhibition is reversible, since transfer of [^3 H]-FPP by FTase to Ras was restored by isolating the farnesyltransferase by gel filtration chromatography after preincubation in the presence of 50 μM AGPP (data not shown).
The assays contained 10 ng recombinant rat FTase, 5 μM H-Ras, and 0.6 μM [^3 H]FPP (33,000 dpm/pmol) or 100 ng recombinant rat CAAX GGTase, 5 μM H-Ras CVLL, and 1 μM [^3 H]GGPP (33,000 dpm/pmol) and the indicated concentration of unlabeled AGPP. The 100% of control values were 1.1 and 5.5 pmol of [^3 H]farnesyl or [^3 H]geranylgeranyl transferred per tube.

[3] = biological target: T1, FTase; experiment: FTase-catalyzed transfer of labeled FPP analogs to p21^H-ras (substrate assay); format: biochemical; parameters: H-Ras is only the protein substrate; conditions: in vitro, 37° C.
Method: FIG. 4. Transfer of Anilinogeranyl from [^3 H]AGPP to p21^Ha-ras by Farnesyltransferase. (A) Each reaction contained 1 μM [^3 H]AGPP (37,400 dpm/pmol) and 10 ng of recombinant FTase in the absence (triangles) or presence (circles) of 5 μM p21^Ha-ras Duplicate samples were incubated for the indicated times at 37° C., and ethanol-HCl precipitated radioactivity was measures as described under "Experimental Procedures". […] The gel was treated with Amplify solution (Amersham), dried, and exposed to Kodak X-OMAT AR film for 2 days at -70° C. The migration of molecular weight markers placed in a adjacent lane is shown. (B) The AGPP substrate saturation curve for FTase was determined by varying the amount of [^3 H]AGPP in the standard reaction described above. Assays were carried out in duplicate for 30 min at 37° C., and the ethanol-HCl precipitable radioactivity measured. The data is representative of three independent experiments.
FIG. 5. […] Farnesyltransferase (10 ng) was incubated in a final volume of 25 μl in the presence of 1.0 μM [^3 H]AGPP or [^3 H]FPP and 5 μM wild-type p21^Ha-ras. After incubation for 30 min at 37° C., the amount of [^3 H]prenyl transferred to p21^Ha-ras was determined as described under "Experimental Procedures". Each value is the average of duplicate incubations and is representative of five separate experiments.
as §1, §2
FIG. 5 depicts transfer of unnatural anilinogeranyl lipid from [^3 H]AGPP and transfer of farnesyl lipid from [^3 H]FPP to H-Ras by FTase. Farnesyltransferase (10 ng) was incubated in a final volume of 25 μl in the presence of 1.0 μM [^3 H]AGPP or [^3 H]FPP and 5 μM wild-type H-Ras. After incubation for 30 min. at 37° C., the amount of [^3 H]prenyl transferred to H-Ras was determined by ethanol-HCl precipitation and scintillation counting. Each value is the average of duplicate incubations and is representative of five separate experiments.

[4] = biological target: T1, FTase; experiment: Continuous fluorescence assay: transfer of FPP and analogs to N-dansyl-GCVLS by FTase; format: biochemical; conditions: excitation 340 nm, 505 nm
From the text: FIG. 8. Progress Curves for Transfer of FPP and Analog Pyrophosphates to Dansyl-GCVLS by FTase. The reaction is monitored for fluorescence intensity at 505 nm with excitation at 340 nm. (a) FPP, (b) AGPP, (c) 8-(pentafluoroaniline)geranyl pyrophosphate, (d) blank.
Continuous Fluorescence Assay for Analog Transfer: An important requirement for these studies is the development of a rapid technique for evaluating whether FPP analogs that are efficiently and appropriately transferred to target substrates by FTase. The analogs were evaluated for their ability to be transferred by FTase to the pentapeptide N-dansyl-GCVLS in a continuous fluorescence assay. (See references 78, 79, infra). There is a time dependent increase in the fluorescence of the dansyl group due to the local increase in hydrophobicity as the adjacent cysteine residue is isoprenylated. […] (FIG. 8).

[5] = test system: Xenopus laevis oocytes; experiment: Xenopus laevis oocyte maturation assay (GVBD) with oncogenic H-Ras in mevinolin-treated oocytes; format: cell-based; conditions: 50 μM mevinolin, overnight
From the text: Recently, a novel methodology involving the microinjection of known amounts of Ras into Xenopus oocytes has been described (see references 24, 45, infra), thereby permitting a quantitative structure-function analysis of H-Ras farnesyl-group for signal transduction in vivo. The approach makes use of enzymatic methods to attach structurally related farnesyl analogs onto the prenylation site of H-Ras combined with microinjection procedures to study their in vivo function. Oocytes are naturally arrested at the G2-M boundary of the first meiotic cell division. (See reference 80, infra). When microinjected with oncogenic H-Ras, oocytes reenter the cell cycle, which is monitored by germinal vesicle breakdown (GVBD) by the appearance of a white spot in the animal hemisphere. GVBD is accompanied by activation of the mitogen-activated protein kinase (MAPK) cascade. (See 81, 82, infra). […] (See references 24, 45, infra). These biochemical effects are strictly dependent on in vivo farnesylation of the injected H-Ras protein since mutation of the CaaX prenylation motif, blocking isoprenoid biosynthesis, and inhibition of FTase in oocytes all suppress these activities. (See references 83-85, infra). Thus, the system provides a method to study the in vivo role of prenylation by analyzing the ability of FPP analogues to rescue H-Ras biological functions in isoprenoid-depleted oocytes. […] Oocytes were isolated from X. laevis females and allowed to recover overnight. (See 24, 45, infra).

C/C(=C\CO)CC/C=C(\C)CNc1ccccc1 [AG-OH, (E,E)-8-Aniline-3,7-dimethyl-2,6-octadien-1-ol]
inhibition of transfer of [^3 H]AGPP to p21^H-ras, in words [1]: not AG-OH or farnesol were found to inhibit
inhibition of FTase by anilinogeranyl alcohol, in words [2]: did not significantly inhibit

C/C(=C\COP(=O)(O)OP(=O)(O)O)CC/C=C(\C)CNc1ccc(I)cc1 [I-AGPP, 8-(4-iodoaniline)-3,7-dimethyl-2,6-octadiene pyrophosphate]
transfer to p21^H-ras by FTase, in words [3]: efficient transfer of I-AGPP by FTase to H-Ras
transfer to p21^H-ras by FTase, in words ([3]; listed as 125 I-AGPP): time and substrate dependent manner similar to [^3 H]AGPP

C/C(=C\COP(=O)(O)OP(=O)(O)O)CC/C=C(\C)CNc1ccc([N+](=O)[O-])cc1 [analog 2, 8-(4-nitroaniline)-3,7-dimethyl-2,6-octadiene pyrophosphate]
time-dependent increase in dansyl fluorescence / transfer to dansyl peptide, in words [4]: Time-dependent increases in the fluorescence of the dansyl group

C/C(=C\COP(=O)(O)OP(=O)(O)O)CC/C=C(\C)CNc1c(F)c(F)c(F)c(F)c1F [analog 4, 8-pentafluoroaniline-3,7-dimethyl-2,6-octadiene pyrophosphate]
time-dependent increase in dansyl fluorescence / transfer to dansyl peptide, in words [4]: Time-dependent increases in the fluorescence of the dansyl group; also recorded: does not change the apparent kinetics of transfer

C/C(=C\COP(=O)(O)OP(=O)(O)O)CC/C=C(\C)CNc1c(F)c(F)c(N=[N+]=[N-])c(F)c1F [analog 5, 8-(4-azido-2,3,5,6-tetrafluoroaniline)-3,7-dimethyl-2,6-octadiene pyrophosphate]
time-dependent increase in dansyl fluorescence / transfer to dansyl peptide, in words [4]: no increase in fluorescence, and are not transferred

CCN(C/C(C)=C/CC/C(C)=C/COP(=O)(O)OP(=O)(O)O)c1c(F)c(F)c(N=[N+]=[N-])c(F)c1F [analog 6, 8-(N-ethyl-4-azido-2,3,5,6-tetrafluoroaniline)-3,7-dimethyl-2,6-octadiene pyrophosphate]
time-dependent increase in dansyl fluorescence / transfer to dansyl peptide, in words [4]: no increase in fluorescence, and are not transferred

C/C(=C\COP(=O)(O)OP(=O)(O)O)CCCOCc1ccccc1 [analog 12, 6-benzyloxy-3-methyl-2-hexene pyrophosphate]
time-dependent increase in dansyl fluorescence / transfer to dansyl peptide, in words [4]: transferred to dansyl peptide by FTase with slow kinetics; also recorded: Time-dependent increases in the fluorescence of the dansyl group

CC(C)=CCCC(C)=CCCC(C)=CCO [farnesol, reference compound]
inhibition of transfer of [^3 H]AGPP to p21^H-ras, in words [1]: not AG-OH or farnesol were found to inhibit

CC[C@H](C)C(=O)O[C@H]1C[C@@H](C)C=C2C=C[C@H](C)[C@H](CC[C@@H]3C[C@@H](O)CC(=O)O3)[C@H]21 [mevinolin, reference compound]
depletion of endogenous FPP pool [5]: effectively depletes the endogenous pool of FPP
